Counter-ions that a name gives are not always drawn.

The assay deals with S1P1/EDG1 (Homo sapiens, UniProt P21453). Briefly: S1P1 CRE-bla CHOK1 reporter assay, inhibition of Forskolin induced cAMP. The class given is cell-based. The following applies: agonist activity range; S1P1 CRE-bla CHOK1 cells, 2 μM Forskolin; read-out: S1P1 ACTIVITY
Chain of S1P1/EDG1 (P21453 whole entry): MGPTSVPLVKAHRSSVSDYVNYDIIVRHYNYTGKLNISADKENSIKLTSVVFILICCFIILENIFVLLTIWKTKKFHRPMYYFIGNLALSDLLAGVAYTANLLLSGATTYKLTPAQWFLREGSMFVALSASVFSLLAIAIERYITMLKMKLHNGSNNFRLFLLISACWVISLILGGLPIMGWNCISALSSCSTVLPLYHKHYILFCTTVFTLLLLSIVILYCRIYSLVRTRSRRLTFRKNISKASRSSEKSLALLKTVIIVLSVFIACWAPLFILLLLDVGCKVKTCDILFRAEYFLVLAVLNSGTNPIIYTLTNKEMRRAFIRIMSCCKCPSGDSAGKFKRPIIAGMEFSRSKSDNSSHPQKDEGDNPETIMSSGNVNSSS
As for the experimental part:
Generation of S1P1-Mediated Inhibition of cAMP Reporter Assay
A mammalian expression plasmid containing S1P1/EDG1 cloned into pcDNA3.1 was purchased from Missouri S&T cDNA Resource Centre. […] S1P1/pcDNA3.1 was transfected into the CRE-bla CHO K1 (Invitrogen) cell line, and stable single cell clones were selected using standard techniques.
S1P1 CRE-Bla CHOK1 Reporter Assay—Characterization of S1P1 Agonists
Cells were seeded into 384-well black wall/clear bottom plates at 10^4 cells/well/19.5 μl assay media (DMEM-phenol free, 0.5% charcoal/dextran stripped serum, 2 mM glutamine, 0.1 mM NEAA, 1 mM Na-Pyruvate, 25 mM Hepes) and incubated for 18 hrs at 37° C. in 5% CO2. Dose response curves (10-point) were generated in 10 mM Hepes, 0.1% Pluronic F127, in the presence of Forskolin. Cells were treated with 0.5 μl compound in the presence of 2 μM Forskolin for 4 hrs at 37° C. The FRET-based β-lactamase fluorescent substrate (LiveBLAzer™-FRET B/G Loading Kit CC4-AM; Invitrogen) was prepared according to manufacturer's directions, and incubated with cells for 2 hrs at room temperature.
On the technique in general: In a reporter assay the amount or activity of a reporter protein is the signal.
With `COCCS(=O)(=O)N[C@@H]1CCCc2c(-c3cnc(-c4ccc(OC(C)C)c(C#N)c4)s3)cccc21` [Compound 285], the EC50 lay in the range of 0.5 to 5 nM.

On to `CCOC(=O)CCS(=O)(=O)N[C@H]1CCCc2c(-c3nnc(-c4ccc(OC(C)C)c(C#N)c4)s3)cccc21` [Compound 286, (S)-ethyl 3-(N-(5-(5-(3-cyano-4-isopropoxyphenyl)-1,3,4-thiadiazol-2-yl)-1,2,3,4-tetrahydronaphthalen-1-yl)sulfamoyl)propanoate], for which the EC50 lay in the range of 0.05 to 0.5 nM.

For `CC(C)Oc1ccc(-c2nnc(-c3cccc4c3CCC[C@H]4NS(=O)(=O)C3CC3)s2)cc1C#N` [Compound 282], the EC50 was in the range of 0.5 to 5 nM.

As to `CC(C)Oc1ccc(-c2ncc(-c3cccc4c3CC[C@H]4NC(=O)N3CC[C@@H](N)C3)s2)cc1C#N` [Compound 178], the EC50 is 0.05 to 0.5 nM.

For the molecule `CC(C)Oc1ccc(-c2nnc(-c3cccc4c3CCC[C@H]4NC(=O)c3cccnc3)s2)cc1C#N` [Compound 234], the EC50 fell in the range of 0.5 to 5 nM.

As for `CC(C)Oc1ccc(-c2nnc(-c3cccc4c3CCC[C@H]4NS(=O)(=O)CCO)s2)cc1C#N` [Compound 289, (R)—N-(5-(5-(3-cyano-4-isopropoxyphenyl)-1,3,4-thiadiazol-2-yl)-1,2,3,4-tetrahydronaphthalen-1-yl)-2-hydroxyethanesulfonamide], the EC50 is 0.05 to 0.5 nM.

On to `CC(C)Oc1ccc(-c2nnc(-c3cccc4c3CCC[C@@H]4NCc3ccccn3)s2)cc1C#N` [Compound 272], for which the EC50 was in the range of 0.5 to 5 nM.

On to `CC(C)Oc1ccc(-c2ncc(-c3cccc4c3CC[C@H]4NC(=O)N3CCC(N(C)C)CC3)s2)cc1C#N` [Compound 192], for which the EC50 was > 5 nM.

Consider `CC(C)Oc1ccc(-c2nnc(-c3cccc4c3CCC[C@@H]4N)s2)cc1C#N` [Compound 229, (S)-5-(5-(5-amino-5,6,7,8-tetrahydronaphthalen-1-yl)-1,3,4-thiadiazol-2-yl)-2-isopropoxybenzonitrile hydrochloride], for which the EC50 lay within 0.5 to 5 nM.

For the molecule `CC(C)Oc1ccc(-c2nnc(-c3cccc4c3CCC[C@@H]4NC(=O)CCNS(C)(=O)=O)s2)cc1C#N` [Compound 254], the EC50 lay in the range of 0.5 to 5 nM.

With `CC(C)Oc1ccc(-c2ncc(-c3cccc4c3CC[C@H]4NS(=O)(=O)CCN3CCCC3)s2)cc1C#N` [Compound 130], the EC50 was 0.5 to 5 nM.

Turning to `CC(C)Oc1ccc(-c2ncc(-c3cccc4c3CC[C@H]4NCCS(C)(=O)=O)s2)cc1C#N` [Compound 220, (R)-2-isopropoxy-5-(5-(1-((2-(methylsulfonyl)ethyl)amino)-2,3-dihydro-1H-inden-4-yl)thiazol-2-yl)benzonitrile], the EC50 was in the range of 0.05 to 0.5 nM.

For `CC(C)Oc1ccc(-c2ncc(-c3cccc4c3CC[C@@H]4NCC(=O)N3CC[C@@H](O)C3)s2)cc1C#N` [Compound 105], the EC50 was > 5 nM.

With `CC(C)Oc1ccc(-c2ncc(-c3cccc4c3CC[C@H]4NS(=O)(=O)Cc3ccccc3)s2)cc1C#N` [Compound 120], the EC50 was 0.5 to 5 nM.

For the molecule `COCCN[C@@H]1CCc2c(-c3cnc(-c4ccc(OC(C)C)c(C#N)c4)s3)cccc21` [Compound 93], the EC50 lay in the range of 0.5 to 5 nM.

Consider `CC(C)Oc1ccc(-c2ncc(-c3cccc4c3CC[C@H]4NS(=O)(=O)CCN3CCNCC3)s2)cc1C#N` [Compound 151], for which the EC50 was > 5 nM.

As to `CC(C)Oc1ccc(-c2ncc(-c3cccc4c3CC[C@H]4NS(=O)(=O)CCN3CC[C@H](O)C3)s2)cc1C#N` [Compound 134], the EC50 was 0.5 to 5 nM.

In the case of `CC(C)Oc1ccc(-c2ncc(-c3cccc4c3CC[C@@H]4NS(=O)(=O)CCN3CCC[C@@H](O)C3)s2)cc1C#N` [Compound 141, N—((S)-4-(2-(3-cyano-4-isopropoxyphenyl)thiazol-5-yl)-2,3-dihydro-1H-inden-1-yl)-2-((R)-3-hydroxypiperidin-1-yl)ethanesulfonamide], the EC50 was 0.5 to 5 nM.

For `CC(C)Oc1ccc(-c2nnc(-c3cccc4c3CCC[C@H]4NCc3ccccn3)s2)cc1C#N` [Compound 264], the EC50 was in the range of 0.5 to 5 nM.

On to `CNCCC(=O)N[C@@H]1CCCc2c(-c3nnc(-c4ccc(OC(C)C)c(C#N)c4)s3)cccc21` [Compound 260], for which the EC50 fell in the range of 0.5 to 5 nM.
